These results are taken from patent US10913983B2, “Sensitivity markers and uses for CDK7 inhibitors in breast cancers” (UNIVERSITY OF SOUTH CAROLINA, priority 2017, dated 2021).

Common to all, as to assay type: cell-based
The test system of one assay is JIMT-1. Kind of assay: Cell proliferation MTT assay. To be noted: JIMT-1, 7 days, MTT; read-out: 7 day IC50. How it is done: (§1) Cells were seeded in 12-well plates at densities ranging from 10000-30000 cells/well and after 24 hours cells were treated with 10, 40 and 100 nM THZ1 in triplicate. After 7 days the cells were imaged using Zeiss Axiovert 200 microscope using a 20× objective lens. Additionally, cells were plated in 96-well plates at a density of 2000 cells/well and after 24 hours treated with 0-10 μM THZ1. After 2 and 7 days the growth of the cells was measured by MTT assay.
(§2) All results were presented as mean±standard deviation of 4-8 parallel assessments. Similar results were obtained from a minimum of two independent experiments. […] Densitometry was performed on duplicate immunoblots using ImageLab software (Biorad) and normalized to tubulin loading controls and then correlated with the THZ1 IC50 values of each cell line. Statistical analyses were performed using SPSS 18.0 (SPSS Inc). Bi-variant scatter graphs and Spearman rank analyses were performed to evaluate associations between protein levels, mRNA and response to inhibition. IC50 values were calculated for MTT assays using CompuSyn software.
(Formazan colour is commonly taken as a measure of viable cells.)

In another assay the test system is MCF7. Kind of assay: Cell proliferation MTT assay. To be noted: MCF7, 7 days, read-out: 7 day IC50. How it is done:
as §1, §2

For another assay, the system named is MDA-MB-231. Kind of assay: Cell proliferation MTT assay. To be noted: MDA-MB-231, 7 days, read-out: 7 day IC50. How it is done:
as §1, §2

The test system of another assay is MDA-MB-361. Kind of assay: Cell proliferation MTT assay. To be noted: MDA-MB-361, 7 days, read-out: 7 day IC50. How it is done: as §1, §2
A further assay relates to SKBR3. Kind of assay: Cell proliferation MTT assay. To be noted: SKBR3, 7 days, read-out: 7 day IC50. How it is done:
as §1, §2

For another assay, the system named is T47D. Kind of assay: Cell proliferation MTT assay. To be noted: 7 days, read-out: 7 day IC50. How it is done:
as §1, §2

For a further assay, the system named is ZR-75-1. In words: Cell proliferation MTT assay. Particulars: ZR-75-1, 7 days, read-out: 7 day IC50. How it is done: as §1, §2
The test system of assay [1] is panel of breast cancer cell lines. Kind of assay: Cell proliferation MTT assay, cell line panel. Particulars: 7 days. How it is done: as §1, §2
To investigate the effect of CDK7 inhibition in a time and dose dependent manner, an extended panel of 11 breast cancer cell lines were screened for response to THZ1 after 2 and 7 days of treatment.

pIC50: −log10 of the molar value.

`CC(C)c1cnn2c(NCc3ccccc3)cc(NCCCCCCN)nc12` [BS-181]: the pIC50 in the assay with JIMT-1 is 4.95; in the assay on MCF7, 4.49; with MDA-MB-231 it was 4.40; in the assay on MDA-MB-361 it was 5.31; in the assay on SKBR3, 5.05; in the assay on T47D, 5.07. The pIC50 in the assay on ZR-75-1 is 4.71. Further, in assay [1] (all tested breast cancer cell lines), the growth inhibition result was “inhibited the growth of all tested breast cancer cell lines”. Also, the “efficiency of growth inhibition compared with THZ1” value in assay [1] (cell line panel) is given as “much less efficient than THZ1”.

The pIC50 is the negative decadic logarithm of the IC50, by convention in mol/L.
